Assay results published in patent publication US20230233569A1 (Revolution Medicines, Inc., priority 2020, published 2023).
Read-outs that look alike come from different tables or passages of the source.

Assays:
[1] = system: Capan-1 (K-Ras G12V); assay: CellTiter-Glo cell viability assay, 5-day treatment; assay type: cell-based; details: Homo sapiens, CAPAN-1, 120 h, 5-day treatment; read-out: Capan-1 Cell Viability assay data (K-Ras G12V, IC50)
In short: (§1)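 Luminescence read-out after 5 days of compound exposure, with plates first brought to room temperature for roughly 30 minutes. Values are percent of averaged DMSO wells, fitted by four-parameter logistic regression.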

[2] = system: NCI-H358 (K-Ras G12C); assay: as above; assay type: cell-based; details: Homo sapiens, NCI-H358, 120 h, 5-day treatment; read-out: H358 Cell Viability assay data (K-Ras G12C, IC50)
In short: as §1

[3] = target: NRAS G12C (Homo sapiens, UniProt P01111+P62937, G12C); assay: Disruption of BRAF RBD interaction with Ras (FRET / MOA assay, with Cyclophilin A); assay type: biochemical
Chain of NRAS G12C (P01111 whole entry G12C): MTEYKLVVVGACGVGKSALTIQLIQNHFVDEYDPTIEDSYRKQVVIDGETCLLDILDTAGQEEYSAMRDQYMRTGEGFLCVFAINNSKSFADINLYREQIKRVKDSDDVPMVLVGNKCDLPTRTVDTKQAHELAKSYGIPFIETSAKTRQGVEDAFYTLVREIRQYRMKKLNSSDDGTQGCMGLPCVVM
Chain of NRAS G12C (P62937 whole entry): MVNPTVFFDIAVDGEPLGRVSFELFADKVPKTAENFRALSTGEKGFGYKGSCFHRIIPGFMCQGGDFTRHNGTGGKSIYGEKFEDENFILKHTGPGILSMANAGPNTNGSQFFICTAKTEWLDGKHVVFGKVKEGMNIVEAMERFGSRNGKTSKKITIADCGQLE

[4] = target: KRAS G13C (Homo sapiens, UniProt P01116+P62937, G13C); assay: as above; assay type: biochemical
Chain of KRAS G13C (P01116 1-169 isoform P01116-2 G13C): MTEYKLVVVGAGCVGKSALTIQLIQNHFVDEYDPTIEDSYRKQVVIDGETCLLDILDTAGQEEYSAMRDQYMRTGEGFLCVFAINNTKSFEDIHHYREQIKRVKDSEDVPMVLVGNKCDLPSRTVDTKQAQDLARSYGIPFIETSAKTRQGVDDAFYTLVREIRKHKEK
Chain of KRAS G13C (P62937 whole entry): as the sequence (P62937 whole entry) above
In short: (§2)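 Biochemical TR-FRET disruption assay: nucleotide-loaded K-Ras with Cyclophilin A and a BRAF RBD construct, compound titrated over 10 points from 30 μM (final).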

[5] = target: KRAS G13D (Homo sapiens, UniProt P01116+P62937, G13D); assay: as above; assay type: biochemical
Chain of KRAS G13D (P01116 1-169 isoform P01116-2 G13D limits assumed): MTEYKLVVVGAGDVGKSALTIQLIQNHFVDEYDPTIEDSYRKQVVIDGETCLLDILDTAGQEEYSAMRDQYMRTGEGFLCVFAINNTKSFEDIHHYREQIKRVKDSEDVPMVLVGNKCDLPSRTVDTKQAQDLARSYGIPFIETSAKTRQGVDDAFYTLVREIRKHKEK
Chain of KRAS G13D (P62937 whole entry): as the sequence (P62937 whole entry) above
In short: as §2

[6] = target: KRAS G12V (Homo sapiens, UniProt P01116+P62937, G12V); assay: as above; assay type: biochemical
Chain of KRAS G12V (P01116 1-169 isoform P01116-2 G12V limits assumed): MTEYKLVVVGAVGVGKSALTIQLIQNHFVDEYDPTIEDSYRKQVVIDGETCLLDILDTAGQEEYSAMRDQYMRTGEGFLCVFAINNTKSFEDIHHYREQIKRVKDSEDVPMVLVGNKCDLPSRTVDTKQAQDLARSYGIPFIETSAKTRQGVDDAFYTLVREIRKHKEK
Chain of KRAS G12V (P62937 whole entry): as the sequence (P62937 whole entry) above
In short: as §2

[7] = target: KRAS G12S (Homo sapiens, UniProt P01116+P62937, G12S); assay: as above; assay type: biochemical
Chain of KRAS G12S (P01116 1-169 isoform P01116-2 G12S limits assumed): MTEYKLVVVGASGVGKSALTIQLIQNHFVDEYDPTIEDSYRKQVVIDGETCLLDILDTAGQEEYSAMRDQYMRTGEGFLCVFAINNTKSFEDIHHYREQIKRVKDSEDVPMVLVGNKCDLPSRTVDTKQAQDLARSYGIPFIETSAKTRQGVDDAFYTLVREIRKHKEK
Chain of KRAS G12S (P62937 whole entry): as the sequence (P62937 whole entry) above
In short: as §2

[8] = target: KRAS G12C (Homo sapiens, UniProt P01116+P62937, G12C); assay: as above; assay type: biochemical
Chain of KRAS G12C (P01116 1-169 isoform P01116-2 G12C): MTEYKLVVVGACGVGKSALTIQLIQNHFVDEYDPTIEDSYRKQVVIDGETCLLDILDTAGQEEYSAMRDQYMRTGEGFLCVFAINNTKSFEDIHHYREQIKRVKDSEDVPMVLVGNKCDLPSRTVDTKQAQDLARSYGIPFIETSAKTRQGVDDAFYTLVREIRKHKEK
Chain of KRAS G12C (P62937 whole entry): as the sequence (P62937 whole entry) above
In short: as §2

[9] = target: KRAS WT (Homo sapiens, UniProt P01116+P62937); assay: as above; assay type: biochemical
Chain of KRAS WT (P01116 1-169 isoform P01116-2 limits assumed): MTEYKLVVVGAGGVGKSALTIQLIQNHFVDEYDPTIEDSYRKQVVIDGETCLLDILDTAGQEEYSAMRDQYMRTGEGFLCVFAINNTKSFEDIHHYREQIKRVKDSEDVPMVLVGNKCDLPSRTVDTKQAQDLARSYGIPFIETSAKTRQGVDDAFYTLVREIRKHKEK
Chain of KRAS WT (P62937 whole entry): as the sequence (P62937 whole entry) above
In short: as §2

[10] = target: KRAS G12D (Homo sapiens, UniProt P01116+P62937, G12D); assay: as above; assay type: biochemical
Chain of KRAS G12D (P01116 1-169 isoform P01116-2 G12D limits assumed): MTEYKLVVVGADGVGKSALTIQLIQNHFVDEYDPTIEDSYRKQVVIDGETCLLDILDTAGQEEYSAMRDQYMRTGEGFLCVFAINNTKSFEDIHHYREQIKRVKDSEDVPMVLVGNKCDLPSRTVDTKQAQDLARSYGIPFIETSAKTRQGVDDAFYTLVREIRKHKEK
Chain of KRAS G12D (P62937 whole entry): as the sequence (P62937 whole entry) above
In short: as §2

[11] = NRAS G12C, read-out: NRAS G12C FRET data IC50
[12] = read-out: KRAS G13C FRET data, IC50
[13] = KRAS G13D, read-out: KRAS G13D FRET data IC50
[14] = KRAS G12V, read-out: KRAS G12V FRET data IC50
[15] = read-out: KRAS G12S FRET data, IC50
[16] = read-out: KRAS G12C FRET data, IC50
[17] = KRAS WT, read-out: KRAS WT FRET data IC50
[18] = read-out: KRAS G12D FRET data, IC50

Structure (SMILES)	IC50 [1] [µM]	IC50 [2] [µM]	IC50 [3, 11] [µM]	IC50 [4, 12] [µM]	IC50 [5, 13] [µM]	IC50 [6, 14] [µM]	IC50 [7, 15] [µM]	IC50 [8, 16] [µM]	IC50 [9, 17] [µM]	IC50 [10, 18] [µM]	IC50 ([3]; NRAS G12C FRET data IC50, NRAS G12C) [µM]	IC50 ([4]; KRAS G13C FRET data, IC50) [µM]	IC50 ([5]; KRAS G13D FRET data IC50, KRAS G13D) [µM]	IC50 ([6]; KRAS G12V FRET data IC50, KRAS G12V) [µM]	IC50 ([7]; KRAS G12S FRET data, IC50) [µM]	IC50 ([8]; KRAS G12C FRET data, IC50) [µM]	IC50 ([9]; KRAS WT FRET data IC50, KRAS WT) [µM]	IC50 ([10]; KRAS G12D FRET data, IC50) [µM]
CCn1c(-c2cccnc2[C@H](C)OC)c2c3cc(ccc31)-c1cc(O)cc(c1)C[C@H](NC(=O)[C@H](C(C)C)N(C)C(=O)[C@@H]1OC[C@@H]3CCC[C@@H]31)C(=O)N1CCC[C@H](N1)C(=O)OCC(C)(C)C2 [Example A407]	0.1 to 1	0.1 to 1	0.01 to 0.1	0.01 to 0.1	0.01 to 0.1	0.01 to 0.1	0.01 to 0.1	0.01 to 0.1	0.01 to 0.1	0.1 to 1	–	–	–	–	–	–	–	–
CCn1c(-c2cccnc2[C@H](C)OC)c2c3cc(ccc31)-c1cc(O)cc(c1)C[C@H](NC(=O)[C@H](C(C)C)N(C)C(=O)[C@H]1CCN(C(=O)C(C)(C)N(C)C)C1)C(=O)N1CCC[C@H](N1)C(=O)OCC(C)(C)C2 (atropisomer, axis not shown) [Example A114]	0.01 to 0.1	0.01 to 0.1	0.01 to 0.1	0.01 to 0.1	0.01 to 0.1	0.01 to 0.1	0.01 to 0.1	0.01 to 0.1	0.01 to 0.1	0.1 to 1	–	–	–	–	–	–	–	–
CCn1c(-c2cnccc2COC)c2c3cc(ccc31)-c1cc(O)cc(c1)C[C@H](NC(=O)[C@H](C(C)C)N(C)C(=O)N1CC(OC)C1)C(=O)N1CCC[C@H](N1)C(=O)OCC(C)(C)C2 [Example A30]	0.1 to 1	0.1 to 1	0.1 to 1	0.1 to 1	1 to 10	0.1 to 1	0.1 to 1	0.1 to 1	0.1 to 1	1 to 10	–	–	–	–	–	–	–	–
CCn1c(-c2cccnc2[C@H](C)OC)c2c3cc(ccc31)-c1cc(O)cc(c1)C[C@H](NC(=O)[C@H](C(C)C)N(C)C(=O)Cc1cc[nH]n1)C(=O)N1CCC[C@H](N1)C(=O)OCC(C)(C)C2 [Example A126]	0.1 to 1	0.1 to 1	0.1 to 1	0.01 to 0.1	0.1 to 1	0.1 to 1	0.1 to 1	0.01 to 0.1	0.01 to 0.1	0.1 to 1	–	–	–	–	–	–	–	–
CCn1c(-c2cnccc2COC)c2c3cc(ccc31)-c1cc(O)cc(c1)C[C@H](NC(=O)[C@H](C(C)C)N(C)C(=O)C1C[C@@H]1C)C(=O)N1CCC[C@H](N1)C(=O)OCC(C)(C)C2 (stereo partly shown) [Example A19]	0.1 to 1	0.1 to 1	0.1 to 1	0.1 to 1	0.1 to 1	0.1 to 1	0.1 to 1	0.01 to 0.1	0.1 to 1	1 to 10	–	–	–	–	–	–	–	–
CCn1c(-c2cccnc2[C@H](C)OC)c2c3cc(ccc31)-c1cc(O)cc(c1)C[C@H](NC(=O)[C@H](C(C)C)N(C)C(=O)C1COC1)C(=O)N1CCC[C@H](N1)C(=O)OCC(C)(C)C2 [Example A18]	0.1 to 1	0.1 to 1	0.1 to 1	0.1 to 1	0.1 to 1	0.1 to 1	0.1 to 1	0.01 to 0.1	0.1 to 1	1 to 10	–	–	–	–	–	–	–	–
CCn1c(-c2cnccc2COC)c2c3cc(ccc31)-c1cc(O)cc(c1)C[C@H](NC(=O)[C@H](C(C)C)N(C)C(=O)[C@H]1CCN(C(=O)C(C)C)C1)C(=O)N1CCC[C@H](N1)C(=O)OCC(C)(C)C2 [Example A29]	1 to 10	0.1 to 1	0.1 to 1	1 to 10	1 to 10	0.1 to 1	0.1 to 1	0.1 to 1	1 to 10	> 10	–	–	–	–	–	–	–	–
CCn1c(-c2cnccc2COC)c2c3cc(ccc31)-c1cc(O)cc(c1)C[C@H](NC(=O)[C@H](C(C)C)N(C)C(=O)[C@H]1CCN(C=O)C1)C(=O)N1CCC[C@H](N1)C(=O)OCC(C)(C)C2 [Example A17, (2S)—N-[(8S,14S)-22-ethyl-4-hydroxy-21-[4-(methoxymethyl)pyridin-3-yl]-18,18-dimethyl-9,15-dioxo-16-oxa-10,22,28-triazapentacyclo[18.5.2.1^2,6.1^10,14.0^23,27]nonacosa-1(26),2,4,6(29),20,23(27),24-heptaen-8-yl]-2-{1-[(3S)-1-formylpyrrolidin-3-yl]-N-methylformamido}-3-methylbutanamide]	1 to 10	1 to 10	–	–	–	–	–	–	–	–	0.1 to 1	0.1 to 1	0.1 to 1	0.1 to 1	0.1 to 1	0.01 to 0.1	0.1 to 1	1 to 10
CCn1c(-c2cccnc2[C@H](C)OC)c2c3cc(ccc31)-c1cc(O)cc(c1)C[C@H](NC(=O)[C@H](C(C)C)N(C)C(=O)[C@H]1CCN(C(=O)CN)C1)C(=O)N1CCC[C@H](N1)C(=O)OCC(C)(C)C2 [Example A1]	1 to 10	1 to 10	0.01 to 0.1	0.01 to 0.1	0.01 to 0.1	0.01 to 0.1	0.01 to 0.1	0.01 to 0.1	0.01 to 0.1	0.01 to 0.1	–	–	–	–	–	–	–	–
CCn1c(-c2cccnc2[C@H](C)OC)c2c3cc(ccc31)-c1cc(O)cc(c1)C[C@H](NC(=O)[C@H](C(C)C)N(C)C(=O)C1CC3CC1CN3)C(=O)N1CCC[C@H](N1)C(=O)OCC(C)(C)C2 (stereo partly shown) [Example A133]	> 10	> 10	0.1 to 1	0.01 to 0.1	0.01 to 0.1	1 to 10	0.1 to 1	0.1 to 1	0.1 to 1	0.01 to 0.1	–	–	–	–	–	–	–	–
CCn1c(-c2cccnc2[C@H](C)OC)c2c3cc(ccc31)-c1csc(n1)C[C@H](NC(=O)[C@H](C(C)C)N(C)C(=O)N(C)C(C)C)C(=O)N1CCC[C@H](N1)C(=O)OCC(C)(C)C2 [Example A350]	0.1 to 1	0.01 to 0.1	0.01 to 0.1	0.1 to 1	0.1 to 1	0.1 to 1	0.1 to 1	0.01 to 0.1	0.1 to 1	0.1 to 1	–	–	–	–	–	–	–	–
CCn1c(-c2cnccc2COC)c2c3cc(ccc31)-c1cc(O)cc(c1)C[C@H](NC(=O)C1CCCC1C(F)F)C(=O)N1CCC[C@H](N1)C(=O)OCC(C)(C)C2 (stereo partly shown) [Example A261]	1 to 10	1 to 10	1 to 10	1 to 10	1 to 10	1 to 10	1 to 10	1 to 10	1 to 10	> 10	–	–	–	–	–	–	–	–
CCn1c(-c2cccnc2[C@H](C)OC)c2c3cc(ccc31)-c1cc(O)cc(c1)C[C@H](NC(=O)[C@H](C(C)C)N(C)C(=O)C1(CO)CC1)C(=O)N1CCC[C@H](N1)C(=O)OCC(C)(C)C2 [Example A232]	0.1 to 1	0.1 to 1	0.1 to 1	0.1 to 1	0.1 to 1	0.1 to 1	0.1 to 1	0.1 to 1	0.1 to 1	0.1 to 1	–	–	–	–	–	–	–	–
CCn1c(-c2cccnc2[C@H](C)OC)c2c3cc(ccc31)-c1csc(n1)C[C@H](NC(=O)[C@H](C(C)C)N(C)C(=O)[C@H]1CCCO1)C(=O)N1CCC[C@H](N1)C(=O)OCC(C)(C)C2 [Example A238]	0.1 to 1	0.1 to 1	1 to 10	1 to 10	1 to 10	1 to 10	1 to 10	1 to 10	1 to 10	> 10	–	–	–	–	–	–	–	–
CCn1c(-c2cccnc2[C@H](C)OC)c2c3cc(ccc31)-c1cc(O)cc(c1)C[C@H](NC(=O)[C@H](C(C)C)N(C)C(=O)[C@H]1CCN(C(=O)OC(C)(C)C)C1)C(=O)N1CCC[C@H](N1)C(=O)OCC(C)(C)C2 [Example A233]	0.01 to 0.1	0.01 to 0.1	0.01 to 0.1	0.01 to 0.1	0.1 to 1	0.01 to 0.1	0.1 to 1	0.01 to 0.1	0.1 to 1	0.1 to 1	–	–	–	–	–	–	–	–
CCn1c(-c2cccnc2[C@H](C)OC)c2c3cc(ccc31)-c1cc(O)cc(c1)C[C@H](NC(=O)[C@H](C(C)C)N(C)C(=O)C13CNCC1C3)C(=O)N1CCC[C@H](N1)C(=O)OCC(C)(C)C2 (stereo partly shown) [Example A155]	1 to 10	0.1 to 1	0.1 to 1	0.01 to 0.1	0.01 to 0.1	0.1 to 1	0.1 to 1	0.01 to 0.1	0.01 to 0.1	0.1 to 1	–	–	–	–	–	–	–	–
